Experiment [1] addresses T1, Prostaglandin G/H synthase 1 (Ovis aries) (UniProt P05979).
T1 sequence (whole entry): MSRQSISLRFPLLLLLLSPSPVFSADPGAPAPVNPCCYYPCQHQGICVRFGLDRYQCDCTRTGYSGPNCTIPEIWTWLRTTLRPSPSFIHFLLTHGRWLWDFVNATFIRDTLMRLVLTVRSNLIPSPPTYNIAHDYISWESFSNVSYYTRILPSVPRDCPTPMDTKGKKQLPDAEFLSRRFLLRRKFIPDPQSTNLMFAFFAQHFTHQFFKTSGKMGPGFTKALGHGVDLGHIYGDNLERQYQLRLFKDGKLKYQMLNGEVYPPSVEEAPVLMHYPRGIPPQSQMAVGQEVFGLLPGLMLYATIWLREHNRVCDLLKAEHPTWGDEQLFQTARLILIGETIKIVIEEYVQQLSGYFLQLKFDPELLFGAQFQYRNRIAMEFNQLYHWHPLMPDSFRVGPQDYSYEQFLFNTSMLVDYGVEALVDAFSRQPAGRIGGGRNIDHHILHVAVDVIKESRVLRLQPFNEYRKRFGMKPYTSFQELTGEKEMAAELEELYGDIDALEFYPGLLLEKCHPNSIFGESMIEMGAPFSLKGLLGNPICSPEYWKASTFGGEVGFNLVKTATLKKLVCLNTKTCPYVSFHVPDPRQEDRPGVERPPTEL
In words: Selective index (SI) which is the ratio of IC50 of Prostaglandin G/H synthase 1 / […].

In experiment [2] the target is T2, Prostaglandin G/H synthase 1 (Ovis aries, UniProt P05979).
T2 sequence (P05979 whole entry): T1 sequence (whole entry)
As to the kind of experiment: Inhibitory activity (RA1) against Prostaglandin G/H synthase 1 was calculated relative to aspirin.

Experiment [3] addresses T1, Prostaglandin G/H synthase 1 (Ovis aries). In words: Selective index (SI) which is the ratio of IC50 of Prostaglandin G/H synthase 1 / […]; IN=Inactive.
Experiment [4] has as its target T3, Prostaglandin G/H synthase 2 (Ovis aries, UniProt P79208).
T3 sequence (P79208 whole entry): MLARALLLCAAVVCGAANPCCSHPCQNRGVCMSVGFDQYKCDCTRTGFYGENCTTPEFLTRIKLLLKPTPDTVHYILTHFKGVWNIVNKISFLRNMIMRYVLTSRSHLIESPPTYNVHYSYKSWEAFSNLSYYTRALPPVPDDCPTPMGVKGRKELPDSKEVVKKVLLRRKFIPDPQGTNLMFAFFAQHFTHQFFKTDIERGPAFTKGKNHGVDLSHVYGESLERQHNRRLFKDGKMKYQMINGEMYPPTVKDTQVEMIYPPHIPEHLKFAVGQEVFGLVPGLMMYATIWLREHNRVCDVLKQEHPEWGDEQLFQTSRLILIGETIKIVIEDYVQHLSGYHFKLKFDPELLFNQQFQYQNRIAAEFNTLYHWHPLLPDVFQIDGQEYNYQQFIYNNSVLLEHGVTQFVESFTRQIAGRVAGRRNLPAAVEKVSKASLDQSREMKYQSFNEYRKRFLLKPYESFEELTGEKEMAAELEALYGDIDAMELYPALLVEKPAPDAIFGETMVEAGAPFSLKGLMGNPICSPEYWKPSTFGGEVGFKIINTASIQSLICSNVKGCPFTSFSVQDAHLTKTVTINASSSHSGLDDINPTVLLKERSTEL
In words: Inhibitory activity (RA2) against Prostaglandin G/H synthase 2 was calculated relative to aspirin.

Calls of active or inactive are those of the source. No cut-off for these calls is given here.

The values that follow come from ChEMBL document CHEMBL1135264, “Thalidomide and its analogues as cyclooxygenase inhibitors” (Bioorg Med Chem Lett, 2002).

As for `O=C1c2ccccc2C(=O)N1CCn1ccc(=O)[nH]c1=O`, the Ratio in experiment [1] amounted to 0.44.

With `O=C1CCN(N2C(=O)c3ccccc3C2=O)C(=O)N1`, in experiment [1], the Ratio came to 1.45.

On to `COc1cc(OC)nc(N2C(=O)Cc3ccccc3C2=O)n1`, for which the Ratio in experiment [1] was 0.38.

`C[C@]1(N2C(=O)c3ccccc3C2=O)CCC(=O)NC1=O`: the IC50 result in experiment [2] and in experiment [4] was “Not Active” each time. Moreover, in experiment [3], the Ratio result is “inactive”.

For the molecule `Cc1cc(C)nc(N2C(=O)Cc3ccccc3C2=O)n1`, the Ratio in experiment [1] came out at 0.45.

`COc1cc(C)nc(N2C(=O)Cc3ccccc3C2=O)n1`: the Ratio in experiment [1] was 0.45.

`Cc1cc(C)nc(N2C(=O)Cc3ccccc3C2=O)c1`: the Ratio in experiment [1] was determined as 0.51.

With `Cc1cc(C)cc(N2C(=O)Cc3ccccc3C2=O)c1`, in experiment [1], the Ratio was found to be 0.39.

Consider `O=C1CCC(N2C(=O)c3ccccc3C2=O)C(=O)N1` (stereo unspecified), for which the Ratio in experiment [1] was 1.23.

`C[C@@]1(N2C(=O)c3ccccc3C2=O)CCC(=O)NC1=O`: in experiment [1], the Ratio came out at 2.56.

In the case of `Cc1cc(C)c(C)c(N2C(=O)c3ccccc3C2=O)c1C`, the Ratio in experiment [1] is 4.16.

Take `C[C@@]1(N2C(=O)c3cccc([N+](=O)[O-])c3C2=O)CCC(=O)NC1=O`: the Ratio in experiment [1] was determined as 0.23.

As to `O=C1c2ccccc2C(=O)N1c1cnc(O)nc1O`, the Ratio in experiment [1] was 7.69.

As for `O=C1NCCCC1N1C(=O)c2ccccc2C1=O` (stereo unspecified), in experiment [1], the Ratio came out at 1.43.

As to `Cc1cc(C)cc(N2C(=O)c3ccccc3C2=O)c1`, the Ratio in experiment [1] was 2.14.

As to `Cc1cc(C)c(C)c(N2C(=O)c3ccccc3C2=O)c1`, the Ratio in experiment [1] was 4.05.

As for `C[C@@]1(N2C(=O)c3ccc([N+](=O)[O-])cc3C2=O)CCC(=O)NC1=O`, the Ratio in experiment [1] was 2.63.

As to `C[C@@]1(N2C(=O)c3ccc(N)cc3C2=O)CCC(=O)NC1=O`, in experiment [1], the Ratio was < 0.07.

With `C[C@@]1(N2C(=O)c3cccc(N)c3C2=O)CCC(=O)NC1=O`, the Ratio in experiment [1] was 11.1.
